The values that follow come from patent publication US20050282154A1 (priority 2003, published 2005).

For assay [1], the system named is S1 domain of the SARS-CoV S protein. The format is binding.
Assay [2] concerns SARS-CoV S protein-expressing 293 T cells and ACE-2-expressing 293 T cells. The format is cell-based, human.

Regarding soluble ACE-2, the “blocking of association of S1-Ig (S1 domain) with Vero E6 cells” value in assay [1] is listed as “blocked association”. Also, in assay [2], the “blocking of syncytia formation mediated by the SARS-CoV S protein” value is “partially blocked”.
